Source: patent EP3441076A1, “PHARMACEUTICAL PRODUCT FOR TREATING TUMOR AND COMBINED IMMUNE DEFECT, AND PREPARATION AND APPLICATION THEREOF” (Beijing Lu De Kai Qi Co., Ltd., priority 2016, dated 2017)
Where two headings read alike, the source gives them in different places. Marks after values point to notes of the source that are not given here.

Tests used:
[1] = test system: polychromatic erythrocytes in bone marrow of mice; settings: for Number of micronucleus (in Ge) / Micronucleus rate: 50 mg/kg•bw, positive control; for Number of micronucleus (in Ge): 5000 cells examined; for Micronucleus rate: P<0.01 vs negative control
Experimental: The walnut extract, the wormwood extract, and the clove bud extract were respectively subjected to a water bath at 70°C for 1 hour, soaked for 12 hours, and concentrated for testing.
(§1) The healthy Kunming mice provided by the Experimental Animal Center of the National Institute for the Control of Pharmaceutical and Biological Products were selected.
The test was carried out via oral gavage and the administration was performed twice at intervals of 24 hrs. 50 mice weighing 25-30 g were randomly divided into 5 groups according to body weight, 10 in each group, half male and half female. […] The doses of the anti-tumor pharmaceutical product for combined immunization according to the present invention were 1.25, 2.50, and 5.00 g/kg•bw, respectively, and the desired concentrations were adjusted with distilled water. The animals were sacrificed by cervical dislocation six hours after the last administration of the anti-tumor pharmaceutical product for combined immunization according to the present invention. The bone marrow of sternum was acquired and diluted with calf serum, smeared, fixed with methanol, and stained with Giemsa. Under the light microscope, 1000 polychromatic erythrocytes (PRC) were counted per animal, and the incidence of micronucleus was calculated by the permillage of micronucleus-containing PRC and statistically processed.

[2] = all dose groups, statistical comparison with distilled water group

Experimental for sperm: Test materials: The walnut extract, the wormwood extract, and the clove bud extract were all prepared in the same manner as in Example 1. The walnut extract, the wormwood extract, and the clove bud extract were respectively subjected to a water bath at 70°C for 1 hour, soaked for 12 hours, and concentrated for testing.
as §1
Fifty sexually mature male mice weighing 30-35 g were randomly divided into 5 groups. […] The doses of the anti-tumor pharmaceutical product for combined immunization according to the present invention were 1.25, 2.50, and 5.00 g/kg•bw, and the desired concentration were adjusted with distilled water. The mice were administered via oral gavage once a day for 5 days, and the animals were sacrificed 30 days after the last gavage. The epididymis was acquired and sectioned and stained with eosin. Five animals were counted in each group and 1000 intact sperm were counted per animal. The incidence of sperm abnormality (in percentage) was calculated and statistically processed.

## O=P1(N(CCCl)CCCl)NCCCO1 (centres unmarked) [cp, cyclophosphamide]
[1]; Female mice
  Number of micronucleus (in Ge): 144
  Micronucleus rate: 28.8* ‰
[1]; Male mice
  Number of micronucleus (in Ge): 164
  Micronucleus rate: 32.8* ‰
[1]; [2]
  difference in micronucleus rate from the negative control group: extremely significant
sperm; [2]
  difference in incidence of sperm abnormality from the negative control group: extremely significant
sperm; male mice, 40 mg/kg•bw, positive control, 5000 sperms examined
  Number of abnormal sperms (in Ge): 517
sperm; male mice, 40 mg/kg•bw, positive control, P<0.01 vs negative control
  Rate of sperm abnormality: 10.34* %
